# System: AMPA receptors
# Test: Excitatory fluxes induced by AMPA in Xenopus oocytes injected with rat cerebral cortex mRNA (2-electrode voltage-clamp)
# Type: cell-based
# Conditions: rat cortex poly-(A+) mRNA, AMPA 10 μM
# Experimental: Study of the Excitatory Fluxes Induced by AMPA in Xenopus oocytes
# mRNAs are prepared from cerebral cortex of male Wistar rat by the guanidinium thiocyanate/phenyl/chloroform method. The poly-(A^+) mRNAs are isolated by chromatography on oligo-dT cellulose and injected in an amount of 50 ng per oocyte. The oocytes are left to incubate for 2 to 3 days at 18° C. to allow expression of the receptors and are then stored at from 8 to 10° C.
# Electrophysiological recording is carried out in a Plexiglass® chamber at from 20 to 24° C. in OR2 medium (J. Exp. Zool., 1973, 184, 321-334) by the 2-electrode “voltage-clamp” method, a 3rd electrode being placed in the bath to serve as reference.
# All the compounds are administered via the incubation medium and the electric current is measured at the end of the period of administration. AMPA is used at a concentration of 10 μM. For each compound studied, the concentration that doubles (EC2X) or quintuples (EC5X) the intensity of the current induced by AMPA alone (5 to 50 nA) is determined.
Structure (SMILES),EC2X (concentration that doubles the intensity of the current induced by AMPA alone) [µM],EC5X (concentration that quintuples the intensity of the current induced by AMPA alone) [µM]
"CCN1CNS(=O)(=O)c2cc(Oc3ccccc3)ccc21 [Example 29, 4-Ethyl-7-phenoxy-3,4-dihydro-2H-1,2,4-benzothiadiazine 1,1-dioxide]",1.4,4.5
"O=S1(=O)NC2CCCN2c2ccc(Oc3ccccc3)cc21 (single isomer, unassigned) [Example 3, 7-Phenoxy-2,3,3a,4-tetrahydro-1H-pyrrolo[2,1-c][1,2,4]-benzothiadiazine 5,5-dioxide, α Isomer]",0.8,3.6

# System: not given
# Test: not given
# Conditions: not given
row,melting point [°C],Structure (SMILES)
1,242 to 245,"N#Cc1ccc(Oc2ccc3c(c2)S(=O)(=O)NC2CCCN32)cc1 (centres unmarked) [Example 5, 4-[(5,5-Dioxido-2,3,3a,4-tetrahydro-1H-pyrrolo[2,1-c][1,2,4]benzothiadiazin-7-yl)oxy]benzonitrile]"
2,150,"CCOc1cccc(Oc2ccc3c(c2)S(=O)(=O)NC2CCCN32)c1 (centres unmarked) [Example 18, 7-(3-Ethoxyphenoxy)-2,3,3a,4-tetrahydro-1H-pyrrolo[2,1-c][1,2,4]-benzothiadiazine 5,5-dioxide]"
3,188 to 191,"COc1ccc(Oc2ccc3c(c2)S(=O)(=O)NC2CCCN32)cc1 (centres unmarked) [Example 9, 7-(4-Methoxyphenoxy)-2,3,3a,4-tetrahydro-1H-pyrrolo[2,1-c][1,2,4]-benzothiadiazine 5,5-dioxide]"
4,223 to 227,"COC(=O)c1cccc(Oc2ccc3c(c2)S(=O)(=O)NC2CCCN32)c1 (centres unmarked) [Example 26, Methyl 3-[(5,5-dioxido-2,3,3a,4-tetrahydro-1H-pyrrolo[2,1-c][1,2,4]-benzothiadiazin-7-yl)oxy]benzoate]"
5,164 to 166,"CCN1CNS(=O)(=O)c2cc(Oc3cccc(C(C)=O)c3)ccc21 [Example 59, 1-{3-[(4-Ethyl-1,1-dioxido-3,4-dihydro-2H-1,2,4-benzothiadiazin-7-yl)oxy]phenyl}ethanone]"
6,222 to 226,"Cc1ccc(Oc2ccc3c(c2)S(=O)(=O)NC2CCCN32)cc1 (centres unmarked) [Example 7, 7-(4-Methylphenoxy)-2,3,3a,4-tetrahydro-1H-pyrrolo[2,1-c][1,2,4]-benzothiadiazine 5,5-dioxide]"
7,91 to 93,"CCN1CNS(=O)(=O)c2cc(Oc3cccc(OC)c3)ccc21 [Example 32, 4-Ethyl-7-(3-methoxyphenoxy)-3,4-dihydro-2H-1,2,4-benzothiadiazine 1,1-dioxide]"
8,171 to 172,"CC(C)c1cccc(Oc2ccc3c(c2)S(=O)(=O)NC2CCCN32)c1 (centres unmarked) [Example 36, 7-(3-Isopropylphenoxy)-2,3,3a,4-tetrahydro-1H-pyrrolo[2,1-c][1,2,4]-benzothiadiazine 5,5-dioxide]"
9,175,"O=S1(=O)NC2CCCN2c2ccc(Oc3cccc(OC(F)(F)F)c3)cc21 (centres unmarked) [Example 19, 7-(3-Trifluoromethoxyphenoxy)-2,3,3a,4-tetrahydro-1H-pyrrolo-[2,1-c][1,2,4]benzothiadiazine 5,5-dioxide]"
10,109 to 111,"CCN1CNS(=O)(=O)c2cc(Oc3ccc(C)c(C)c3)ccc21 [Example 61, 7-(3,4-Dimethylphenoxy)-4-ethyl-3,4-dihydro-2H-1,2,4-benzothiadiazine 1,1-dioxide]"
11,227 to 229,"O=S1(=O)NC2CCCN2c2ccc(Oc3cccc4ccccc34)cc21 (centres unmarked) [Example 20, 7-(1-Naphthyloxy)-2,3,3a,4-tetrahydro-1H-pyrrolo[2,1-c][1,2,4]-benzothiadiazine 5,5-dioxide]"
12,143 to 144,"CCc1cccc(Oc2ccc3c(c2)S(=O)(=O)NC2CCCN32)c1 (centres unmarked) [Example 35, 7-(3-Ethylphenoxy)-2,3,3a,4-tetrahydro-1H-pyrrolo [2,1-c][1,2,4]-benzothiadiazine 5,5-dioxide]"
13,201 to 204,"O=[N+]([O-])c1cccc(Oc2ccc3c(c2)S(=O)(=O)NC2CCCN32)c1 (centres unmarked) [Example 15, 7-(3-Nitrophenoxy)-2,3,3a,4-tetrahydro-1H-pyrrolo[2,1-c][1,2,4]-benzothiadiazine 5,5-dioxide]"
14,190 to 195,"Cc1cccc(Oc2ccc3c(c2)S(=O)(=O)NC2CCCN32)c1 (centres unmarked) [Example 8, 7-(3-Methylphenoxy)-2,3,3a,4-tetrahydro-1H-pyrrolo[2,1-c][1,2,4]-benzothiadiazine 5,5-dioxide]"
15,143 to 145,"CCCN1CNS(=O)(=O)c2cc(Oc3ccccc3)ccc21 [Example 30, 4-Propyl-7-phenoxy-3,4-dihydro-2H-1,2,4-benzothiadiazine 1,1-dioxide]"
16,160,"CSc1cccc(Oc2ccc3c(c2)S(=O)(=O)NC2CCCN32)c1 (centres unmarked) [Example 34, 7-(3-Methylsulphanylphenoxy)-2,3,3a,4-tetrahydro-1H-pyrrolo-[2,1-c][1,2,4]benzothiadiazine 5,5-dioxide]"

# The next lines start with the compound.
row,Structure (SMILES),melting point [°C]
1,"CCN1CNS(=O)(=O)c2cc(Oc3ccccc3)ccc21 [Example 29, 4-Ethyl-7-phenoxy-3,4-dihydro-2H-1,2,4-benzothiadiazine 1,1-dioxide]",179 to 181
2,"CCN1CNS(=O)(=O)c2cc(Oc3cccc(NS(C)(=O)=O)c3)ccc21 [Example 58, N-{3-[(4-Ethyl-1,1-dioxido-3,4-dihydro-2H-1,2,4-benzothiadiazin-7-yl)oxy]phenyl}methanesulphonamide]",165 to 168
3,"O=S1(=O)NC2CCCN2c2ccc(Oc3cccc(Cl)c3)cc21 (centres unmarked) [Example 17, 7-(3-Chlorophenoxy)-2,3,3a,4-tetrahydro-1H-pyrrolo[2,1-c][1,2,4]-benzothiadiazine 5,5-dioxide]",194 to 198
4,"CCN1CNS(=O)(=O)c2cc(Oc3cccc(C)c3)ccc21 [Example 57, 4-Ethyl-7-(3-methylphenoxy)-3,4-dihydro-2H-[1,2,4]benzothiadiazine 1,1-dioxide]",72 to 75
5,"O=S1(=O)NC2CCCN2c2ccc(Oc3ccc4ccccc4c3)cc21 (centres unmarked) [Example 21, 7-(2-Naphthyloxy)-2,3,3a,4-tetrahydro-1H-pyrrolo[2,1-c][1,2,4]-benzothiadiazine 5,5-dioxide]",234 to 236
6,"O=S1(=O)NC2CCCN2c2ccc(Oc3cccc(OCc4ccccc4)c3)cc21 (centres unmarked) [Example 22, 7-(3-Benzyloxyphenoxy)-2,3,3a,4-tetrahydro-1H-pyrrolo-[2,1-c][1,2,4]benzothiadiazine 5,5-dioxide]",179 to 182
7,"CCN1CNS(=O)(=O)c2cc(Oc3cccc(C#N)c3)ccc21 [Example 31, 3-[(4-Ethyl-1,1-dioxido-3,4-dihydro-2H-1,2,4-benzothiadiazin-7-yl)oxy]benzonitrile]",143 to 146
8,"N#Cc1cccc(Oc2ccc3c(c2)S(=O)(=O)NC2CCCN32)c1 (centres unmarked) [Example 6, 3-[(5,5-Dioxido-2,3,3a,4-tetrahydro-1H-pyrrolo [2,1-c][1,2,4]benzothiadiazin-7-yl)oxy]benzonitrile]",227 to 230
9,"O=S1(=O)NC2CCCN2c2ccc(Oc3cccc(F)c3)cc21 (centres unmarked) [Example 37, 7-(3-Fluorophenoxy)-2,3,3a,4-tetrahydro-1H-pyrrolo [2,1-c][1,2,4]-benzothiadiazine 5,5-dioxide]",201
10,"O=S1(=O)NC2CCCN2c2ccc(Oc3cc(C(F)(F)F)cc(C(F)(F)F)c3)cc21 (centres unmarked) [Example 16, 7-[3,5-Di(trifluoromethyl)phenoxy]-2,3,3a,4-tetrahydro-1H-pyrrolo[2,1-c][1,2,4]benzothiadiazine 5,5-dioxide]",201 to 203
11,"O=S1(=O)NC2CCCN2c2ccc(Oc3cccc(Br)c3)cc21 (centres unmarked) [Example 38, 7-(3-Bromophenoxy)-2,3,3a,4-tetrahydro-1H-pyrrolo[2,1-c][1,2,4]-benzothiadiazine 5,5-dioxide]",193 to 195
12,"COc1ccccc1Oc1ccc2c(c1)S(=O)(=O)NC1CCCN21 (centres unmarked) [Example 13, 7-(2-Methoxyphenoxy)-2,3,3a,4-tetrahydro-1H-pyrrolo[2,1-c][1,2,4]-benzothiadiazine 5,5-dioxide]",175 to 176
